Source: article PMC11364775, “Ion occupancy of the selectivity filter controls opening of a cytoplasmic gate in the K2P channel TALK-2” (Nature Communications, 2024)
Where a chain is given by its changes, count along the chain named. Entries after “also recorded” stand apart in the source; their conditions may differ.

Key:
WT TALK-2 channels [1] = biological target: T1, WT TALK-2 channels (Homo sapiens, UniProt Q96T54); assay: Cysteine modification assay with MTS-ET, control (inside-out patch); details: basal state or activated with 2-APB or oleoyl-CoA; 1.0 mM MTS-ET
T1 sequence (Q96T54 1-332): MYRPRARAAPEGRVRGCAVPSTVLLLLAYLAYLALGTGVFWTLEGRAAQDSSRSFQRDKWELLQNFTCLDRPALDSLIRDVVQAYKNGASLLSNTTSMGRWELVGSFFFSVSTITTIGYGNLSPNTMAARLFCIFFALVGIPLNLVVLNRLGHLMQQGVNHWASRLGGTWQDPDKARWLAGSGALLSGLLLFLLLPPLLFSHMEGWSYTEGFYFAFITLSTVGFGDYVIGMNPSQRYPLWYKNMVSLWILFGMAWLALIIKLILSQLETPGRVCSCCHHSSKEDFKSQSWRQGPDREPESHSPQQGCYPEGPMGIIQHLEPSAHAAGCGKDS
Protocol: To investigate the latter, we utilized a cysteine modification assay.
Oocytes were surgically removed from anesthetized adult females, treated with type II collagenase (Sigma-Aldrich/Merck, Germany) and manually defolliculated. 50 nl of a solution containing the K^+ channel specific cRNA was injected into Dumont stage V - VI oocytes and subsequently incubated at 17 °C in a solution containing (mM): 54 NaCl, 30 KCl, 2.4 NaHCO3, 0.82 MgSO4 x 7 H2O, 0.41 CaCl2, 0.33 Ca(NO3)2 x 4 H2O and 7.5 TRIS (pH 7.4 adjusted with NaOH/HCl) for 1–7 days before use. Electrophysiological recordings: Excised patch measurements in inside-out configuration under voltage-clamp conditions were performed at room temperature (22 – 24 °C). […] Currents were recorded with an EPC10 amplifier (HEKA electronics, Germany) and sampled at 10 kHz or higher and filtered with 3 kHz (-3 dB) or higher as appropriate for sampling rate.
Data analysis and statistics were done using Fitmaster (HEKA electronics, version: v2x73.5, Germany), Microsoft Excel 2021 (Microsoft Corporation, USA), and Igor Pro 9 software (WaveMetrics Inc., USA). Recorded currents were analyzed from stable membrane patches at a voltage defined in the respective figure legend or with a voltage protocol as indicated in the respective figure.

[2] = biological target: T2, WT TALK-2 channels (human K2P17.1) (Homo sapiens, UniProt Q96T54); assay: Inside-out patch-clamp, ligand activation of channel currents at +40 mV (oocytes)
T2 sequence (Q96T54 1-332): T1 sequence (Q96T54 1-332)
Protocol: Oocytes were surgically removed from anesthetized adult females, treated with type II collagenase (Sigma-Aldrich/Merck, Germany) and manually defolliculated. 50 nl of a solution containing the K^+ channel specific cRNA was injected into Dumont stage V - VI oocytes and subsequently incubated at 17 °C in a solution containing (mM): 54 NaCl, 30 KCl, 2.4 NaHCO3, 0.82 MgSO4 x 7 H2O, 0.41 CaCl2, 0.33 Ca(NO3)2 x 4 H2O and 7.5 TRIS (pH 7.4 adjusted with NaOH/HCl) for 1–7 days before use. Electrophysiological recordings: Excised patch measurements in inside-out configuration under voltage-clamp conditions were performed at room temperature (22 – 24 °C). […] Intracellular bath solutions and compounds were applied to the cytoplasmic side of excised patches for the various K^+ channels via a gravity flow multi-barrel pipette system. Intracellular solution had the following composition (in mM): 120 KCl, 10 HEPES, 2 EGTA and 1 Pyrophosphate (pH adjusted with KOH/HCl). In other intracellular bath solutions, K^+ was replaced by Rb^+ (pH 7.4 adjusted with RbOH/HCl). Currents were recorded with an EPC10 amplifier (HEKA electronics, Germany) and sampled at 10 kHz or higher and filtered with 3 kHz (-3 dB) or higher as appropriate for sampling rate.
Recorded currents were analyzed from stable membrane patches at a voltage defined in the respective figure legend or with a voltage protocol as indicated in the respective figure. The fold activation (fold change in (tail) current amplitude) of a ligand (drug or bioactive lipid) was calculated from Eq. 1:1 Fold activationFA=Iactivated/Ibasal where Iactivated represents the stable current level in the presence of a given concentration of a respective ligand and Ibasal the measured current before ligand application. Percentage inhibition or residual currents upon blocker application for a ligand (drug or bioactive lipid) was calculated from stable currents of excised membrane patches using the following Eqs. 2 and 3:2 %inhibition=1−Iinhibited/Ibasal*100 3 Residual current=100−%inhibition where Iinhibited refers to the stable current level recorded in the presence of a given concentration of a drug or bioactive lipid and Ibasal to the measured current before ligand application. The macroscopic half-maximal concentration-inhibition relationship of a ligand was obtained using a Hill-fit for dose-response curves as depicted in Eq. 4:4 %inhibition/activation=Ibase+Imax−Ibase/1+x1/2/x^rate where base and max are the currents in the absence and presence of a respective ligand, x is the concentration of the ligand, x1/2 is the ligand concentration at which the activatory or inhibitory effect is half-maximal, rate is the Hill coefficient.

WT TALK-2 channels [3] = biological target: T1, WT TALK-2 channels; assay: Pore blocker inhibition (dose-response, residual currents) in inside-out patches at +40 mV; format: cell-based; parameters: expressed in transfected cells; host or cells: Xenopus laevis oocytes (cRNA injection), excised inside-out patches; details: for blocker inhibition upon activation by 2-APB: 2-APB pre-activated
Protocol: (§1) Data shown are the mean ± s.e.m and the number (n) of independent experiments and repeats of representative measurements with similar results is indicated in the figure.
(§2) Electrophysiological recordings: Excised patch measurements in inside-out configuration under voltage-clamp conditions were performed at room temperature (22 – 24 °C). Patch pipettes were made from thick-walled borosilicate glass GB 200TF-8P (Science Products, Germany), had resistances of 0.2–0.5 MΩ (tip diameter of 10 - 25 µm) and filled with a pipette solution (in mM): 120 KCl, 10 HEPES and 3.6 CaCl2 (pH 7.0 - 8.5 adjusted with KOH/HCl) or 120 KCl, 10 AMPSO and 3.6 CaCl2 (pH 9.0 - 10.5 adjusted with KOH/HCl). Intracellular bath solutions and compounds were applied to the cytoplasmic side of excised patches for the various K^+ channels via a gravity flow multi-barrel pipette system. Intracellular solution had the following composition (in mM): 120 KCl, 10 HEPES, 2 EGTA and 1 Pyrophosphate (pH adjusted with KOH/HCl). In other intracellular bath solutions, K^+ was replaced by Rb^+ (pH 7.4 adjusted with RbOH/HCl). Currents were recorded with an EPC10 amplifier (HEKA electronics, Germany) and sampled at 10 kHz or higher and filtered with 3 kHz (-3 dB) or higher as appropriate for sampling rate.
(§3) Data analysis and statistics were done using Fitmaster (HEKA electronics, version: v2x73.5, Germany), Microsoft Excel 2021 (Microsoft Corporation, USA), and Igor Pro 9 software (WaveMetrics Inc., USA). Recorded currents were analyzed from stable membrane patches at a voltage defined in the respective figure legend or with a voltage protocol as indicated in the respective figure. […] Percentage inhibition or residual currents upon blocker application for a ligand (drug or bioactive lipid) was calculated from stable currents of excised membrane patches using the following Eqs. 2 and 3:2 %inhibition=1−Iinhibited/Ibasal*100 3 Residual current=100−%inhibition where Iinhibited refers to the stable current level recorded in the presence of a given concentration of a drug or bioactive lipid and Ibasal to the measured current before ligand application.

[4] = biological target: T3, TALK-2 L264A mutant channels (Homo sapiens, UniProt Q96T54, L264A); assay: as above; format: cell-based; parameters: expressed in transfected cells; host or cells: Xenopus laevis oocytes (cRNA injection), excised inside-out patches; details: TALK-2 L264A
T3 sequence (Q96T54 1-332 L264A): T1 sequence (Q96T54 1-332) with L264A
Protocol: as §1, §2, §3

[5] = biological target: T4, WT TREK-2 channels (human K2P10.1) (Homo sapiens, UniProt P57789); assay: Tail current deactivation kinetics with pore blocker (inside-out patch); format: cell-based; details: intracellular Rb+ without blocker
T4 construct: expressed in transfected cells; host or cells: Xenopus laevis oocytes (cRNA injection), excised inside-out patches
T4 sequence (P57789 1-538): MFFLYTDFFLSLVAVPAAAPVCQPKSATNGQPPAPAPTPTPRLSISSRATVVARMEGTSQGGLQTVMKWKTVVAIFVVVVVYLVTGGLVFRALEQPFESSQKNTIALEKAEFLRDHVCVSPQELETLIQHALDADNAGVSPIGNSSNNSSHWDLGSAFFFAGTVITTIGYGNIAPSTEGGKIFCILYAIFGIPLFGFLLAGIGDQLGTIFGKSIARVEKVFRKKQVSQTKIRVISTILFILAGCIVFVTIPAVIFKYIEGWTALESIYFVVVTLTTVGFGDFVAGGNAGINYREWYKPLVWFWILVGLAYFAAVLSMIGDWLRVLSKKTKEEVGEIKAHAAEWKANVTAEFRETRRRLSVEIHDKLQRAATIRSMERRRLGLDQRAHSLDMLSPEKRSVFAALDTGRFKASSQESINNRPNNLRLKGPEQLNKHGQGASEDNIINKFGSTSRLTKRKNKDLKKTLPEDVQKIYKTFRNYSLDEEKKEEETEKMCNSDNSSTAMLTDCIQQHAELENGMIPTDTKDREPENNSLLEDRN

WT TALK-2 channels [6] = biological target: T1, WT TALK-2 channels; assay: as above; format: cell-based; parameters: expressed in transfected cells; host or cells: Xenopus laevis oocytes (cRNA injection), excised inside-out patches; details: intracellular Rb+ without blocker; step to +100 mV, repolarization to -80 mV
Excerpt: In voltage-gated K^+ (Kv) channels, the closing of the lower gate can be prevented by the binding of blockers such as tetra-pentyl-ammonium (TPenA) in the pore cavity and, thereby, causing a slowing of the deactivation kinetics which is known as the ‘foot in the door’ effect[33],[34]. To test for such a mechanism in TALK-2, we activated the channels with a voltage step to +100 mV in the presence of intracellular Rb^+ followed by a repolarization step to -80 mV (to induce tail currents) with and without the K2P channel pore blocker TPenA. […] We hypothesize, that the two gates are strongly coupled and, therefore, opening the SF gate by depolarization should also open the lower gate, which then consequently would allow blocker (like TPenA) binding within the pore cavity (Fig. 5a cartoon). Upon repolarization, however, the bound TPenA blocker obstructs closure of the lower gate and thereby, hinders the SF from closure/inactivation (gate coupling).

SMILES: C[N+](C)(C)CCSS(C)(=O)=O.[Cl-] [MTS-ET]
- effect of MTS-ET on WT TALK-2 currents (WT TALK-2 channels [1]): almost no effect; also recorded: insensitive

SMILES: c1ccc(-c2nn[nH]n2)c(Nc2cccc3c2CCCC3)c1 [BL-1249]
- activation of TALK-2 channels by BL-1249 ([2]; 50 µM BL-1249, +40 mV): robust and reversible channel activation
- Fold activation 50 µM BL-1249 ([2]; 50 µM, TALK-2 WT): 72.38 fold

SMILES: O=C(NCc1ccccc1-c1ccccc1C(=O)NCCc1ccccn1)OCc1ccccc1 [S9947]
- blocker inhibition upon activation by 2-APB (WT TALK-2 channels [3]): strong inhibition
- Residual currents with 50 µM S9947 (WT TALK-2 channels [3]; TALK-2 WT + 1.0 mM 2-APB): 6.15%
- Residual currents with 50 µM S9947 (WT TALK-2 channels [3]; TALK-2 WT): 98.48%
- blocker inhibition of unstimulated TALK-2 channels (WT TALK-2 channels [3]): little inhibition
- Residual currents with 50 µM S9947 ([4]; 50 µM S9947): 41.47%

SMILES: COc1ccc(CC(=O)NCc2ccccc2-c2ccccc2C(=O)NCc2ccc(F)cc2F)cc1 [A1899]
- blocker inhibition upon activation by 2-APB (WT TALK-2 channels [3]): strong inhibition
- Residual currents with 10 µM A1899 (WT TALK-2 channels [3]; TALK-2 WT + 1.0 mM 2-APB): 50.53%
- Residual currents with 10 µM A1899 (WT TALK-2 channels [3]; TALK-2 WT): 100.95%
- blocker inhibition of unstimulated TALK-2 channels (WT TALK-2 channels [3]): little inhibition
- Residual currents with 10 µM A1899 ([4]; 10 µM A1899): 41.55%

SMILES: COc1ccc(CC(=O)NCc2ccccc2-c2ccccc2C(=O)NCCc2cccnc2)cc1 [AVE0118]
- blocker inhibition upon activation by 2-APB (WT TALK-2 channels [3]): strong inhibition
- Residual currents with 50 µM AVE0118 (WT TALK-2 channels [3]; TALK-2 WT + 1.0 mM 2-APB): 12.33%
- Residual currents with 50 µM AVE0118 (WT TALK-2 channels [3]; TALK-2 WT): 96.7%
- blocker inhibition of unstimulated TALK-2 channels (WT TALK-2 channels [3]): little inhibition
- Residual currents with 50 µM AVE0118 ([4]; 50 µM AVE0118): 14.56%

SMILES: [Rb+] [Rb^+]
- deactivation time constant τ of tail currents [5]: 17.5 ± 1.7 ms
- Fold Rb+ activation ([2]; TALK-2 WT): 9.12 fold
- deactivation time constant τ of tail currents (WT TALK-2 channels [6]): 3.0 ± 0.2 ms
